The target in the test is T1, KRAS G12C 1-169, his-tagged protein, GDP-loaded (Homo sapiens, UniProt P01116, G12C).
T1 construct: KRAS G12C 1-169, his-tagged protein, GDP-loaded
The experiment in a line: Biochemical assay: covalent modification of KRAS G12C measured by mass spectrometry (RapidFire/TOF or Q-Exactive). The note with it: covalent binding to KRAS G12C; compounds of structure (I). An outline of the steps: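 Covalent adduct formation read by intact-mass spectrometry (TOF or Q Exactive Plus, charge envelopes deconvoluted into modified and unmodified species) after formic acid quench. Reactions contained 2 μM GDP-bound KRAS G12C 1-169 (his-tag) in Hepes/NaCl/MgCl2 buffer plus 10, 30 or 100 μM final compound, held 30 min, 2 h or 24 h at room temperature.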
Regarding `C=CC(=O)N1CCN(c2nc(OCC(O)CN(C)C)nc3c(F)c(-c4cc(O)cc5ccccc45)c(Cl)cc23)CC1` (centres unmarked) [Example I-58, 1-(4-(6-chloro-2-(3-(dimethyl-amino)-2-hydroxy-propoxy)-8-fluoro-7-(3-hydroxy-naphthalen-1-yl)quinazolin-4-yl)piperazin-1-yl)prop-2-en-1-one], the Binding % entry was “+++ (+++ indicates binding activity greater than 90%)”.
To `C=CC(=O)N1CCN(c2nc(OC3CCN(C)CC3)nc3c(F)c(-c4c(C)ccc5[nH]ncc45)c(Cl)cc23)CC1` [Example I-59, 1-(4-(6-chloro-8-fluoro-7-(5-methyl-1H-indazol-4-yl)-2-(1-methyl-piperidin-4-yloxy)quinazolin-4-yl)piperazin-1-yl)prop-2-en-1-one] belongs “+++ (+++ indicates binding activity greater than 90%)”; to `C=C(F)C(=O)N1CCN(c2nc(OCCN3CCOCC3)nc3c(F)c(-c4c(O)cccc4F)c(Cl)cc23)CC1` [Example I-60, 1-(4-(6-chloro-8-fluoro-7-(2-fluoro-6-hydroxyphenyl)-2-(2-morpholino-ethoxy)quinazolin-4-yl)piperazin-1-yl)-2-fluoroprop-2-en-1-one], “++ (++ indicates binding activity from 50 to 90%)”; to `C=CC(=O)N1CCN(c2nc(NCCF)nc3c(F)c(-c4cc(O)cc5ccccc45)c(Cl)cc23)CC1` [Example I-61, 1-(4-(6-chloro-8-fluoro-2-(2-fluoroethyl-amino)-7-(3-hydroxy-naphthalen-1-yl)quinazolin-4-yl)piperazin-1-yl)prop-2-en-1-one], “+++ (+++ indicates binding activity greater than 90%)”.
The value for `C=CC(=O)N1CCN(c2nc(OCCCN3CCC(F)(F)C3)nc3c(F)c(-c4c(O)cccc4F)c(Cl)cc23)CC1` [Example I-62, 1-(4-(6-chloro-2-(3-(3,3-difluoro-pyrrolidin-1-yl)propoxy)-8-fluoro-7-(2-fluoro-6-hydroxyphenyl)quinazolin-4-yl)piperazin-1-yl) prop-2-en-1-one] was “+++ (+++ indicates binding activity greater than 90%)”; that for `C=CC(=O)N1CCN(c2nc(OC3CCC(O)CC3)nc3c(F)c(-c4c(O)cccc4F)c(Cl)cc23)CC1` (centres unmarked) [Example I-63, 1-(4-(6-chloro-8-fluoro-7-(2-fluoro-6-hydroxyphenyl)-2-(4-hydroxy-cyclohexyloxy)quinazolin-4-yl)piperazin-1-yl)prop-2-en-1-one] was “+++ (+++ indicates binding activity greater than 90%)”.
To `C=CC(=O)N1CCN(c2nc(Oc3cn[nH]c3)nc3c(F)c(-c4c(O)cccc4F)c(Cl)cc23)CC1` [Example I-64, 1-(4-(2-(1H-pyrazol-4-yloxy)-6-chloro-8-fluoro-7-(2-fluoro-6-hydroxyphenyl)quinazolin-4-yl)piperazin-1-yl) prop-2-en-1-one] belongs “+++ (+++ indicates binding activity greater than 90%)”.
On to `CN(C)C/C=C/C(=O)N1CCN(c2nc(OCCN3CCOCC3)nc3c(F)c(-c4cc(O)cc5ccccc45)c(Cl)cc23)CC1` [Example I-65, (E)-1-(4-(6-chloro-8-fluoro-7-(3-hydroxy-naphthalen-1-yl)-2-(2-morpholino-ethoxy)quinazolin-4-yl)piperazin-1-yl)-4-(dimethyl-amino)but-2-en-1-one], for which the Binding % entry is given as “+++ (+++ indicates binding activity greater than 90%)”.
To `C=CC(=O)N1CCN(c2nc(NC3CCS(=O)(=O)CC3)nc3c(F)c(-c4c(O)cccc4F)c(Cl)cc23)CC1` [Example I-66, 1-(4-(6-chloro-8-fluoro-7-(2-fluoro-6-hydroxyphenyl)-2-(tetrahydro-2H-dioxothio-pyran-4-ylamino)quinazolin-4-yl)piperazin-1-yl) prop-2-en-1-one] belongs “+++ (+++ indicates binding activity greater than 90%)”; to `C=CC(=O)N1CCN(c2nc(OCCN3CCS(=O)(=O)CC3)nc3c(F)c(-c4c(O)cccc4F)c(Cl)cc23)CC1` [Example I-67, 1-(4-(6-chloro-8-fluoro-7-(2-fluoro-6-hydroxyphenyl)-2-(2-dioxothio-morpholino-ethoxy)quinazolin-4-yl)piperazin-1-yl)prop-2-en-1-one], “+++ (+++ indicates binding activity greater than 90%)”; to `C=CC(=O)N1CCN(c2nc(C#N)nc3c(F)c(-c4c(O)cccc4F)c(Cl)cc23)CC1` [Example I-68, 4-(4-acryloyl-piperazin-1-yl)-6-chloro-8-fluoro-7-(2-fluoro-6-hydroxyphenyl) quinazoline-2-carbonitrile], “+++ (+++ indicates binding activity greater than 90%)”.
As for `C=CC(=O)N1CCN(c2nc(NC3CCOCC3)nc3c(F)c(-c4cc(O)cc5ccccc45)c(Cl)cc23)CC1` [Example I-69, 1-(4-(6-chloro-8-fluoro-7-(3-hydroxy-naphthalen-1-yl)-2-(tetrahydro-2H-pyran-4-ylamino)quinazolin-4-yl)piperazin-1-yl)prop-2-en-1-one], the Binding % entry is recorded as “+++ (+++ indicates binding activity greater than 90%)”.
`C=CC(=O)N1CCN(c2nc(NC3CCN(C(C)=O)CC3)nc3c(F)c(-c4c(O)cccc4F)c(Cl)cc23)CC1` [Example I-70, 1-(4-(2-(1-acetyl-piperidin-4-ylamino)-6-chloro-8-fluoro-7-(2-fluoro-6-hydroxyphenyl)quinazolin-4-yl)piperazin-1-yl) prop-2-en-1-one]: the Binding % entry is recorded as “+++ (+++ indicates binding activity greater than 90%)”.
To `C=CC(=O)N1CCN(c2nc(NC3CCOC3)nc3c(F)c(-c4cc(O)cc5ccccc45)c(Cl)cc23)CC1` (centres unmarked) [Example I-71, 1-(4-(6-chloro-8-fluoro-7-(3-hydroxy-naphthalen-1-yl)-2-(tetrahydro-furan-3-ylamino)quinazolin-4-yl)piperazin-1-yl)prop-2-en-1-one] belongs “+++ (+++ indicates binding activity greater than 90%)”; to `C=CC(=O)N1CCN(c2nc(NC3CCN(C4CC4)CC3)nc3c(F)c(-c4c(O)cccc4F)c(Cl)cc23)CC1` [Example I-72, 1-(4-(6-chloro-2-(1-cyclopropyl-piperidin-4-ylamino)-8-fluoro-7-(2-fluoro-6-hydroxyphenyl)quinazolin-4-yl)piperazin-1-yl) prop-2-en-1-one], “+++ (+++ indicates binding activity greater than 90%)”.
The value for `C=C(Cl)C(=O)N1CCN(c2nc(OCCN3CCOCC3)nc3c(F)c(-c4cc(O)cc5ccccc45)c(Cl)cc23)CC1` [Example I-73, 2-chloro-1-(4-(6-chloro-8-fluoro-7-(3-hydroxy-naphthalen-1-yl)-2-(2-morpholino-ethoxy)quinazolin-4-yl)piperazin-1-yl)prop-2-en-1-one] was “+++ (+++ indicates binding activity greater than 90%)”.
To `CN(C)C/C=C/C(=O)N1CCN(c2nc(OCCN3CCOCC3)nc3c(F)c(-c4c(O)cccc4F)c(Cl)cc23)CC1` [Example I-74, (E)-1-(4-(6-chloro-8-fluoro-7-(2-fluoro-6-hydroxyphenyl)-2-(2-morpholino-ethoxy)quinazolin-4-yl)piperazin-1-yl)-4-(dimethyl-amino)but-2-en-1-one] belongs “+++ (+++ indicates binding activity greater than 90%)”; to `C=CC(=O)N1CCN(c2nc(NC3CCN(C4CC4)CC3)nc3c(F)c(-c4cc(O)cc5ccccc45)c(Cl)cc23)CC1` [Example I-75, 1-(4-(6-chloro-2-(1-cyclo-propylpiperidin-4-ylamino)-8-fluoro-7-(3-hydroxy-naphthalen-1-yl)quinazolin-4-yl)piperazin-1-yl)prop-2-en-1-one], “+++ (+++ indicates binding activity greater than 90%)”.
Consider `C=CC(=O)N1CCN(c2nc(OCCN3CCC(F)CC3)nc3c(F)c(-c4c(O)cccc4F)c(Cl)cc23)CC1` [Example I-76, 1-(4-(6-chloro-8-fluoro-7-(2-fluoro-6-hydroxyphenyl)-2-(2-(4-fluoro-piperidin-1-yl)ethoxy)quinazolin-4-yl)piperazin-1-yl)prop-2-en-1-one], for which the Binding % result was “+++ (+++ indicates binding activity greater than 90%)”.
To `C=CC(=O)N1CCN(c2nc(NC3CCN(C(C)C)CC3)nc3c(F)c(-c4cc(O)cc5ccccc45)c(Cl)cc23)CC1` [Example I-77, 1-(4-(6-chloro-8-fluoro-7-(3-hydroxy-naphthalen-1-yl)-2-(1-isopropyl-piperidin-4-ylamino)quinazolin-4-yl)piperazin-1-yl)prop-2-en-1-one] belongs “+++ (+++ indicates binding activity greater than 90%)”.
The value for `C=CC(=O)N1CCN(c2nc(NC3CCN(C4CC4)CC3)nc3c(F)c(-c4c(C)cccc4O)c(Cl)cc23)CC1` [Example I-80, 1-(4-(6-chloro-2-(1-cyclopropyl-piperidin-4-ylamino)-8-fluoro-7-(2-hydroxy-6-methylphenyl)quinazolin-4-yl)piperazin-1-yl) prop-2-en-1-one] was “+++ (+++ indicates binding activity greater than 90%)”; that for `C=CC(=O)N1CCN(c2nc(OCCO)nc3c(F)c(-c4cc(O)cc5ccccc45)c(Cl)cc23)CC1` [Example I-83, 1-(4-(6-chloro-8-fluoro-2-(2-hydroxyethoxy)-7-(3-hydroxy-naphthalen-1-yl)quinazolin-4-yl)piperazin-1-yl)prop-2-en-1-one] was “+++ (+++ indicates binding activity greater than 90%)”; that for `C=CC(=O)N1CCN(c2nc(NC3CCN(C(C)C)CC3)nc3c(F)c(-c4c(O)cccc4F)c(Cl)cc23)CC1` [Example I-84, 1-(4-(6-chloro-8-fluoro-7-(2-fluoro-6-hydroxyphenyl)-2-(1-isopropyl-piperidin-4-ylamino)quinazolin-4-yl)piperazin-1-yl)prop-2-en-1-one] was “+++ (+++ indicates binding activity greater than 90%)”.

Source of the values: US10829458B2 (Araxes Pharma LLC, priority 2015, dated 2020).
